Data: PMC5858925, “Mechanochemical coupling and bi-phasic force-velocity dependence in the ultra-fast ring ATPase SpoIIIE” (eLife, 2018)

Target: T1, SpoIIIE (Bacillus subtilis, UniProt P21458)
T1 construct: recombinant SpoIIIE, homo-hexamer, immobilized on polystyrene beads
Assay: optical tweezers, pause-free DNA translocation velocity vs [ATP], Michaelis-Menten fit
Type: biochemical
Details: 0.25-5 mM ATP; 5 pN opposing force; dsDNA track; 5 µM ADP and 5 µM Pi

T1 sequence (P21458 whole entry): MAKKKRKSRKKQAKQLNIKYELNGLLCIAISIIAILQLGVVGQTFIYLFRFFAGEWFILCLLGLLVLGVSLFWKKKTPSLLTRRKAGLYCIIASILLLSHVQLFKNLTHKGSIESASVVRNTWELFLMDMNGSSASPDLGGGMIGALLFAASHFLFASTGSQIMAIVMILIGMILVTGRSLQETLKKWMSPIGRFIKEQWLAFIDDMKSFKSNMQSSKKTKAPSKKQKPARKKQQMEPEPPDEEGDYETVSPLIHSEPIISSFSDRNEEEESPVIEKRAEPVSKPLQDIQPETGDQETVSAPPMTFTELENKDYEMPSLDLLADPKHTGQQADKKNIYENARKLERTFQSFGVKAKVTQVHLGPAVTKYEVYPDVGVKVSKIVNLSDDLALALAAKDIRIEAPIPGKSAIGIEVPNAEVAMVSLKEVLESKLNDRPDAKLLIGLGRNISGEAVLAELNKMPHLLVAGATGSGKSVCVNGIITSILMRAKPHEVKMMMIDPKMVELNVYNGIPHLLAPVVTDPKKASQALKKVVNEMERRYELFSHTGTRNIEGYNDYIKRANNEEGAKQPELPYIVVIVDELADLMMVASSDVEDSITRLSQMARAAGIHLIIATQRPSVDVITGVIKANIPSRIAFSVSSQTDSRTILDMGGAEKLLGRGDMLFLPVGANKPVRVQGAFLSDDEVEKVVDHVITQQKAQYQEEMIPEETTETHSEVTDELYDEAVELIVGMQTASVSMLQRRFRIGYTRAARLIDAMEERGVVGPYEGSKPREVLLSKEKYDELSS

Q: With `Nc1ncnc2c1ncn2[C@@H]1O[C@H](COP(=O)(O)OP(=O)(O)OP(=O)(O)O)[C@@H](O)[C@H]1O` [ATP] as the compound, how does the KM read?
A: Its KM is “Although both Vmax and KM decrease with force, Vmax/KM is largely force-independent”.
